According to patent US20250025495A1, “Diagnosis and Treatment of Metabolic Syndrome with Magnesium Compositions” (priority 2023, published 2025):

Columns and labels:
[1] = system: sulfate reducing bacteria (SRB); assay: SRB growth and hydrogen sulfide production with MgO; assay type: cell-based
Protocol: Total counts were obtained and represented as cells per ml. To account for the heavy right skew of the response variable, the analysis was conducted using a shifted log-transformation of the data and 90% confidence intervals were constructed using Cox's method. […] 90% confidence intervals were constructed using a parametric Bootstrap procedure based on a zero-inflated log-normal model where the parameters were estimated using maximum likelihood. The relationship between MgO dose level and the response (SRB Growth and H2S Concentration) was assessed with an F test based on a simple linear model. Data is presented as Mean±SEM. In this second in-vitro experiment, bacteria was grown with varying doses of MgO (0.5-2.0 mg/ml) in liquid media at 37° for 24 hours (n=3). Total counts were obtained and represented as cells per ml (FIG. 2A). To account for the heavy right skew of the response variable, the analysis was conducted using a shifted log-transformation of the data and 90% confidence intervals were constructed using Cox's method. Hydrogen sulfide production of SRB grown for 24 hours with varying concentrations of MgO as represented as parts per billion (ppb) (FIG. 2B). […] The relationship between MgO dose level and the response (SRB Growth and H2S Concentration) was assessed with an F test based on a simple linear model Data is presented as Mean±SEM.

[2] = burn patients, intravenous; cited from earlier work
[3] = gut dysbiosis induced with lectin-containing raw red kidney beans (RRKB); assay type: in vivo; conditions: by inducing heat shock factor 70

[Mg] [magnesium (Mg), magnesium]
protection of the intestinal barrier by suppressing SRB and blocking production of hydrogen sulfide [1]: effective in protecting the intestinal barrier

NC(=O)CC[C@H](N)C(=O)O [glutamine]
endotoxemia and increased intestinal permeability [2]: reversed | reversal of leaky gut and microbial translocation to the liver [3]: able to reverse these effects

[O]=[Mg] [magnesium oxide]
reversal of SRB effects (increased intestinal permeability, SRB proliferation, hydrogen sulfide production) [1]: could be reversed
